Where “and” joins values, the source holds several entries; their conditions need not be identical. Equal entries are not always repeated. Where two headings read alike, the source gives them in different places.
Legend:
[1] = for Cmax / TAMIC0.5 / TAMIC1.0 / Tmax / AUCtau / AUCinf / AUClast / t1/2: plasma; for Tmax: median (minimum-maximum); for AUCtau: time 0 to 12 hours
Experimental: Subjects were to be dosed twice a day (every 12 hours) for 6 days and on Day 7 they were to be dosed once. All treatment groups could be run in parallel or sequentially. Subjects were allocated based on the randomization list. Randomization numbers were assigned sequentially as subjects entered into groups on the basis of their order of entry into the study. Subjects who withdrew for reasons unrelated to safety may have been replaced. Blood samples were obtained at prespecified intervals in order to characterize pharmacokinetics.

[2] = assay type: in vivo, human; conditions: for Tlast / Tmax: median; for TAMIC1: minimum concentration 0.5 μg/mL; for TAMIC2: minimum concentration 1.0 μg/mL
Experimental: A Phase 1, randomized, investigator-blind, subject-blind, sponsor-open, placebo-controlled, single and multiple dose study of Compound II-2b was further conducted. There were 6 planned cohorts of subjects. Each cohort was planned to enroll 12 subjects, for a total of 72 planned subjects. Subjects in the multidose cohort were dosed for 10 days; new subjects were recruited for each cohort. Subjects in these cohorts, on Days 1 through 9, were dosed BTD (12 hours apart) at approximately 0800 and 2000 hours. On Day 10, subjects were to be dosed only once at approximately 0800 hours.

[3] = assay type: in vivo, human; conditions: for TAMIC0.5 / TAMIC1.0 / Tmax: median; for Ae24%: percent of administered dose, adjusted for MW; for CLr: renal clearance; for Ae24: urine over 24 hours postdose
Source text: The pharmacokinetics of Compound III-2b wer studies in a randomized, subject-blinded, investigator- and sponsor-open, placebo-controlled, multiple-dose study, run in parallel cohorts. There were 7 cohorts of approximately 10 subjects each (4:1 active:placebo).

[4] = 2000 mg BID, Study Day 1, plasma
[5] = 2000 mg BID, Study Day 10, plasma
[6] = Cohort 2: 1 g BID, fasted, Day 1
[7] = Cohort 2: 1 g BID, fasted, Day 7
[8] = Cohort 3: 1.5 g BID, fed, Day 1
[9] = Cohort 3: 1.5 g BID, fed, Day 7
[10] = Cohort 4: 0.5 g BID, fasted, Day 1
[11] = Cohort 4: 0.5 g BID, fasted, Day 7

AUCtau, GM ([1]; Day 7, With Probenecid): 5325.20 ng·h/mL
Cmax, GM ([1]; Day 7, With Probenecid): 1532.10 ng/mL
AUCtau, GM ([1]; Day 7, Without Probenecid): 3084.36 ng·h/mL
Cmax, GM ([1]; Day 7, Without Probenecid): 1233.18 ng/mL
AUC of sulopenem on Day 7 compared with Day 1 ([1]; administered alone through the oral route): lower than that on Day 1
Cmax ([1]; fasted, Day 1): 1699.1 (31.64) ng/mL
TAMIC0.5 ([1]; fasted, Day 1): 2.6348 (14.85) h
TAMIC1.0 ([1]; fasted, Day 1): 1.0758 (94.61) h
Tmax ([1]; fasted, Day 1): 1.0000 (0.4830-2.017) h
AUCinf ([1]; fasted, Day 7): 2627.8 (18.89) hr*ng/mL
AUClast ([1]; fasted, Day 7): 2607.4 (19.10) hr*ng/mL
Cmax ([1]; fasted, Day 7): 1289.4 (39.17) ng/mL
TAMIC0.5 ([1]; fasted, Day 7): 2.1088 (16.74) h
TAMIC1.0 ([1]; fasted, Day 7): 0.732 (62.70) h
t1/2 ([1]; fasted, Day 7): 0.9376 (15.34) h
Tmax ([1]; fasted, Day 7): 0.9915 (0.5000-1.033) h
Cmax ([1]; fed, Day 1): 1730.9 (46.66) ng/mL
TAMIC0.5 ([1]; fed, Day 1): 3.0103 (31.13) h
TAMIC1.0 ([1]; fed, Day 1): 2.0882 (25.12) h
Tmax ([1]; fed, Day 1): 1.000 (1.5000-2.983) h
AUCtau ([1]; fed, Day 1): 4413.7 (27.00) hr*ng/mL
AUCinf ([1]; fed, Day 7): 3712.7 (24.27) hr*ng/mL
AUClast ([1]; fed, Day 7): 3537 (25.01) hr*ng/mL
Cmax ([1]; fed, Day 7): 1179.4 (25.94) ng/mL
TAMIC0.5 ([1]; fed, Day 7): 2.8507 (31.48) h
TAMIC1.0 ([1]; fed, Day 7): 1.3191 (62.54) h
t1/2 ([1]; fed, Day 7): 0.9114 (26.68) h
Tmax ([1]; fed, Day 7): 1.483 (2.0000-4.000) h
AUCtau ([1]; fed, Day 7): 3706.4 (24.21) hr*ng/mL
AUCinf [2, 4]: 18100 ng·h/mL
AUCtau [2, 4]: 17500 ng·h/mL
Cmax [2, 4]: 6090 ng/mL
t1/2 [2, 4]: 1.66 h
Tlast [2, 4]: 8.00 h
Tmax [2, 4]: 1.00 h
TAMIC1 [2, 4]: 6.93
TAMIC2 [2, 4]: 5.57
Ae24 ([2]; 2000 mg BID, Study Day 6, urine, sulopenem excreted unchanged over 24 hours): 253000 (26) ug
Rac ([2]; 2000 mg BID, Study Day 10, accumulation ratio): 0.685
AUCtau [2, 5]: 12200 ng·h/mL
Cmax [2, 5]: 5480 ng/mL
Ctrough [2, 5]: 0.00 ng/mL
t1/2 [2, 5]: 1.27 h
Tlast [2, 5]: 8.00 h
Tmax [2, 5]: 1.00 h
TAMIC1 [2, 5]: 4.70
TAMIC2 [2, 5]: 3.61
AUCtau ([2]; 2000 mg, Day 1): 17500 ng·h/mL
AUCtau ([2]; 2000 mg, Day 10): 12200 ng·h/mL
AUCinf ([3]; 500 mg FED, Day 1): 3400 ng·h/mL
AUCinf ([3]; 500 mg FED, Day 7): 2990 ng·h/mL
AUCinf ([3]; 1000 mg FED, Day 1): 9430 ng·h/mL
AUCinf ([3]; 1000 mg FED, Day 7): 7800 ng·h/mL
AUCinf ([3]; 1000 mg TID FED, Day 1): 8290 ng·h/mL
AUCinf ([3]; 1000 mg TID FED, Day 7): 6750 ng·h/mL
AUCinf ([3]; 1000 mg, Day 1): 6680 ng·h/mL
AUCinf ([3]; 1000 mg, Day 7): 6020 ng·h/mL
AUCinf ([3]; 1500 mg, Day 1): 12900 ng·h/mL
AUCinf ([3]; 1500 mg, Day 7): 9950 ng·h/mL
AUCinf ([3]; Cohort 1: 1 g BID, fed, Day 1): 9430 (13) ng · h/mL
AUClast ([3]; Cohort 1: 1 g BID, fed, Day 1): 9330 (13) ng · h/mL
Cmax ([3]; Cohort 1: 1 g BID, fed, Day 1): 4420 (24) ng/mL
t½ ([3]; Cohort 1: 1 g BID, fed, Day 1): 0.823 (13) h
TAMIC0.5 ([3]; Cohort 1: 1 g BID, fed, Day 1): 4.35 h
TAMIC1.0 ([3]; Cohort 1: 1 g BID, fed, Day 1): 3.21 h
Tmax ([3]; Cohort 1: 1 g BID, fed, Day 1): 1.50 h
AUCinf ([3]; Cohort 1: 1 g BID, fed, Day 7): 7800 (17) ng · h/mL
AUClast ([3]; Cohort 1: 1 g BID, fed, Day 7): 7670 (17) ng · h/mL
Cmax ([3]; Cohort 1: 1 g BID, fed, Day 7): 3770 (23) ng/mL
t½ ([3]; Cohort 1: 1 g BID, fed, Day 7): 0.761 (11) h
Rac ([3]; Cohort 1: 1 g BID, fed, Day 7, accumulation ratio): 0.832 (13)
TAMIC0.5 ([3]; Cohort 1: 1 g BID, fed, Day 7): 3.32 h
TAMIC1.0 ([3]; Cohort 1: 1 g BID, fed, Day 7): 2.64 h
Tmax ([3]; Cohort 1: 1 g BID, fed, Day 7): 2.00 h
Ae24% ([3]; Cohort 1: 1 g BID, fed, Day 7): 19.0 (27) %
CLr ([3]; Cohort 1: 1 g BID, fed, Day 7): 17.4 (19) L/h
Ae24 ([3]; Cohort 1: 1 g BID, fed, Day 7): 138.7 (27) mg
AUCinf [3, 6]: 6680 (20) ng · h/mL
AUClast [3, 6]: 6770 (22) ng · h/mL
Cmax [3, 6]: 2760 (13) ng/mL
t½ [3, 6]: 1.37 (33) h
TAMIC0.5 [3, 6]: 3.69 h
TAMIC1.0 [3, 6]: 2.91 h
Tmax [3, 6]: 1.50 h
AUCinf [3, 7]: 6020 (16) ng · h/mL
AUClast [3, 7]: 6070 (19) ng · h/mL
Cmax [3, 7]: 2410 (33) ng/mL
t½ [3, 7]: 1.08 (24) h
Rac ([3]; Cohort 2: 1 g BID, fasted, Day 7, accumulation ratio): 0.910 (11)
TAMIC0.5 [3, 7]: 4.18 h
TAMIC1.0 [3, 7]: 2.72 h
Tmax [3, 7]: 1.75 h
Ae24% [3, 7]: 10.2 (23) %
CLr [3, 7]: 12.2 (30) L/h
Ae24 [3, 7]: 74.4 (23) mg
AUCinf [3, 8]: 12900 (23) ng · h/mL
AUClast [3, 8]: 12100 (21) ng · h/mL
Cmax [3, 8]: 3700 (42) ng/mL
t½ [3, 8]: 1.20 (14) h
TAMIC0.5 [3, 8]: 6.34 h
TAMIC1.0 [3, 8]: 4.81 h
Tmax [3, 8]: 2.50 h
AUCinf [3, 9]: 9950 (15) ng · h/mL
AUClast [3, 9]: 9710 (15) ng · h/mL
Cmax [3, 9]: 2670 (28) ng/mL
t½ [3, 9]: 0.901 (14) h
Rac ([3]; Cohort 3: 1.5 g BID, fed, Day 7, accumulation ratio): 0.809 (14)
TAMIC0.5 [3, 9]: 5.96 h
TAMIC1.0 [3, 9]: 4.44 h
Tmax [3, 9]: 2.51 h
AUCinf [3, 10]: 3400 (20) ng · h/mL
AUClast [3, 10]: 3260 (22) ng · h/mL
Cmax [3, 10]: 1470 (34) ng/mL
t½ [3, 10]: 0.862 (19) h
TAMIC0.5 [3, 10]: 2.66 h
TAMIC1.0 [3, 10]: 1.38 h
Tmax [3, 10]: 1.03 h
AUCinf [3, 11]: 2990 (23) ng · h/mL
AUClast [3, 11]: 2730 (27) ng · h/mL
Cmax [3, 11]: 1310 (22) ng/mL
t½ [3, 11]: 0.797 (16) h
Rac ([3]; Cohort 4: 0.5 g BID, fasted, Day 7, accumulation ratio): 0.873 (29)
TAMIC0.5 [3, 11]: 2.38 h
TAMIC1.0 [3, 11]: 0.803 h
Tmax [3, 11]: 1.50 h
AUCinf ([3]; Cohort 7: 1 g TID, fed, Day 1): 8290 (6) ng · h/mL
AUClast ([3]; Cohort 7: 1 g TID, fed, Day 1): 7670 (13) ng · h/mL
Cmax ([3]; Cohort 7: 1 g TID, fed, Day 1): 3320 (36) ng/mL
t½ ([3]; Cohort 7: 1 g TID, fed, Day 1): 1.26 (40) h
TAMIC0.5 ([3]; Cohort 7: 1 g TID, fed, Day 1): 4.90 h
TAMIC1.0 ([3]; Cohort 7: 1 g TID, fed, Day 1): 3.32 h
Tmax ([3]; Cohort 7: 1 g TID, fed, Day 1): 1.75 h
AUCinf ([3]; Cohort 7: 1 g TID, fed, Day 7): 6750 (11) ng · h/mL
AUClast ([3]; Cohort 7: 1 g TID, fed, Day 7): 6230 (16) ng · h/mL
Cmax ([3]; Cohort 7: 1 g TID, fed, Day 7): 2090 (28) ng/mL
t½ ([3]; Cohort 7: 1 g TID, fed, Day 7): 0.790 (2) h
Rac ([3]; Cohort 7: 1 g TID, fed, Day 7, accumulation ratio): 0.827 (21)
TAMIC0.5 ([3]; Cohort 7: 1 g TID, fed, Day 7): 4.62 h
TAMIC1.0 ([3]; Cohort 7: 1 g TID, fed, Day 7): 3.22 h
Tmax ([3]; Cohort 7: 1 g TID, fed, Day 7): 4.00 h
Rac ([3]; in vivo): 1.10 (24)
SMILES: CCC(CC)C(=O)OCOC(=O)C1=C(S[C@H]2CC[S@@+]([O-])C2)S[C@@H]2[C@@H]([C@@H](C)O)C(=O)N12 [Compound III-2b, Sulopenem Etzadroxil]
AUC of sulopenem on Day 7 compared with Day 1 ([1]; co-administered with probenecid): increased on Day 7 beyond that seen on Day 1
AUCtau ([1]; fasted, Day 1): 3623.8 (19.19) hr*ng/mL and 3623.8 hr*ng/mL
AUCtau ([1]; fasted, Day 7): 2626.3 (18.89) hr*ng/mL and 2626.3 hr*ng/mL
Ae % ([2]; 2000 mg BID, Study Day 6, urine, percent of sulopenem dose excreted): 17.3 (26) %

From patent US12109197B2, “Combinations of β-lactam compounds and probenecid and uses thereof” (Iterum Therapeutics International Limited, priority 2018, dated 2024)
